Entries after “also recorded” stand apart in the source; their conditions may differ.
Assays:
[1] = system: patient having P.R.I.C.E. Syndrome; assay: Example 1: case report of a patient with P.R.I.C.E. Syndrome, earlier medications then KAPVAY (plus inositol)
Excerpt: The patient was tried on many psychostimulant medications, which are the gold standard for treatment of ADHD. Medications in this class include: Adderall/XR, Focalin/XR, Dexedrine, Vyvanse, Ritalin/LA/ER, Metadate ER/CD, Concerta and Daytrana.
By convention, psychiatrists refer to this phenomenon as Bipolar III or hypomania induced by medication which predicts and unmasks the development of spontaneous mood swings of genuine Bipolar to come for the patient later in life.
Nevertheless, the psychiatrist tried a series of atypical antipsychotics, including Zyprexa, Geodon, Seroquel as well as two FDA approved drugs for treatment of irritability in Autistic Disorder, Abilify and Risperdal.
The Applicant tapered and discontinued the aforementioned medications in the patient. The Applicant then titrated up KAPVAY® as follows: 0.1 mg at bedtime for a week; next, 0.1 mg twice a day for a week; next, 0.1 mg in the morning and 0.2 mg at night for one week; and finally 0.2 mg twice a day going forward.

[2] = system: patient having P.R.I.C.E. Syndrome; assay: Example 2: case report of a patient with P.R.I.C.E. Syndrome, earlier medications then INTUNIV (plus inositol); assay type: in vivo, human; conditions: Example 2 patient; for effect on the patient's symptoms (particularism, concentration) / side effects: medications given before the P.R.I.C.E. diagnosis
Experimental: They had been taking Zoloft and Abilify, as well as Melatonin to help them sleep.
The Applicant tapered and discontinued the patient's then-current medications. The Applicant then titrated up INTUNIV® 1 mg at bedtime, increasing by an additional 1 mg at bedtime every week as necessary to achieve symptom control, up to a maximum of 4 mg.

[3] = system: patients with Bipolar Disorder; conditions: post-marketing reports; cited from earlier work
[4] = cited from earlier work
[5] = system: patients having P.R.I.C.E. Syndrome; assay: Applicant's general clinical findings in patients who meet all criteria for P.R.I.C.E. Syndrome; assay type: in vivo, human; conditions: patients meeting all P.R.I.C.E. criteria, Applicant's practice
Excerpt: Both KAPVAY® and INTUNIV® are FDA-approved for treatment of ADHD. […] A psychiatrist would be led away from prescribing KAPVAY® or INTUNIV® to patients with suspected Bipolar Disorder since it is known that alpha-2 adrenergic agonists could potentially exacerbate emotional lability found in such patients.
Extended release clonidine is capable of stable therapeutic effects by maintaining a constant serum level for an extended period in order to avoid the “peak and trough” side effects of transient sedation at peak serum levels and rebound exacerbation of symptoms at trough levels. Embodiments of extended release compositions of clonidine are described in U.S. Pat. No. 5,869,100, which is incorporated herein by reference in its entirety.

[6] = Example 1 patient, medications tried before the P.R.I.C.E. diagnosis

SMILES	effect on the patient's symptoms (agitation, impulsivity, concentration, rigidity) [1, 6]	side effects ([1]; human, in vivo)	also measured
[Li] [Lithium]	–	–	side effects [1, 6]: worsening the patient's concentration
CN[C@H]1CC[C@@H](c2ccc(Cl)c(Cl)c2)c2ccccc21 [Zoloft]	–	–	effect on the patient's symptoms (particularism, concentration) [2]: did not alleviate the particularism; side effects [2]: become “wild” and unable to sleep
NC(=O)C[S+]([O-])C(c1ccccc1)c1ccccc1 (stereo not shown) [Provigil]	increased agitation and impulsivity	–	–
Nc1nnc(-c2cccc(Cl)c2Cl)c(N)n1 [Lamictal]	ineffective; also recorded: not helping their agitation	–	–
CC(C)NCC(O)COc1cccc2ccccc12 (stereo not shown) [propranolol]	not effective	too sedative	–
Cc1cc2c(s1)Nc1ccccc1N=C2N1CCN(C)CC1 [Zyprexa]	–	severe sedation, impaired their concentration further and caused an increase in both appetite and weight	–
NC(=O)C[S@@+]([O-])C(c1ccccc1)c1ccccc1 [Nuvigil]	increased agitation and impulsivity	–	–
CCCC(CCC)C(=O)O [Depakote]	ineffective; also recorded: not helping their agitation	–	–
CC1(C)O[C@@H]2[C@@H](CO[C@@]3(COS(N)(=O)=O)OC(C)(C)O[C@@H]23)O1 [Topamax]	ineffective	worsening the patient's concentration	–
NC(=O)N1c2ccccc2C=Cc2ccccc21 [Tegretol]	ineffective	worsening the patient's concentration	–
COC(=O)C(c1ccccc1)C1CCCCN1 (stereo not shown) [Daytrana]	worsen their agitation without helping their concentration	–	–
NC(=O)N1c2ccccc2CC(=O)c2ccccc21 [Trileptal]	ineffective	worsening the patient's concentration	–
CNCCC(Oc1ccc(C(F)(F)F)cc1)c1ccccc1 (stereo not shown) [Prozac]	–	–	effect on the patient's symptoms (particularism, concentration) [2]: did not alleviate the particularism; side effects [2]: become “wild” and unable to sleep
CC(NC(C)(C)C)C(=O)c1cccc(Cl)c1 (stereo not shown) [Wellbutrin]	increased agitation and impulsivity	–	–
CN(C)CCC[C@@]1(c2ccc(F)cc2)OCc2cc(C#N)ccc21 [Lexapro]	worsening their agitation without helping their rigidity	–	–
O=C1Cc2cc(CCN3CCN(c4nsc5ccccc45)CC3)c(Cl)cc2N1 [Geodon]	–	severe sedation, impaired their concentration further and caused an increase in both appetite and weight	–
Cc1nc2n(c(=O)c1CCN1CCC(c3noc4cc(F)ccc34)CC1)CCCC2 [Risperdal]	–	severe sedation, impaired their concentration further and caused an increase in both appetite and weight	side effects [2]: sedation and weight gain
O=C1CCc2ccc(OCCCCN3CCN(c4cccc(Cl)c4Cl)CC3)cc2N1 [Abilify]	–	severe sedation, impaired their concentration further and caused an increase in both appetite and weight	effect on the patient's symptoms (particularism, concentration) [2]: without improvement in concentration; side effects [2]: sedation and tremor
N=C(N)NC(=O)Cc1c(Cl)cccc1Cl [Tenex, N-(Aminoiminomethyl)-2,6-dichlorobenzeneacetamide; N-amidino-2-(2,6 dichlorophenyl) acetamide]	not effective	–	manic symptoms in Bipolar Disorder [3]: development or exacerbation of manic symptoms; side effects [1, 6]: too sedative
OCCOCCN1CCN(C2=Nc3ccccc3Sc3ccccc32)CC1 [Seroquel]	–	severe sedation, impaired their concentration further and caused an increase in both appetite and weight	–
Clc1cccc(Cl)c1N=C1NCCN1 [short-acting clonidine, 2,6-dichloro-N-2-imidazolidinylidene benzeneamine]	not effective	too sedative	biological half-life ([4]; after oral administration of short-acting clonidine): four to six; primary side-effect ([4]; short-acting clonidine, about an hour after the given dose): sedation; absorption from the gastrointestinal tract ([4]; short-acting oral formulation): almost completely absorbed; effectiveness in treating P.R.I.C.E. Syndrome [5]: ineffective
O[C@H]1[C@H](O)[C@@H](O)[C@H](O)[C@@H](O)[C@H]1O [Inositol, inositol]	–	–	effect on "getting stuck" on certain topics in conversation ([2]; Inositol 9000 mg twice a day added to INTUNIV): therapeutically beneficial; effectiveness in treating P.R.I.C.E. Syndrome [5]: effective in addressing residual particularism
CNCC[C@@H](Oc1ccccc1C)c1ccccc1 [Strattera]	increased agitation and impulsivity	–	–

Source: patent US9211284B2, “Diagnosis and treatment of P.R.I.C.E. syndrome” (priority 2013, dated 2015)
